Test results: PubChem BioAssay AID1963976 (Molecular Pharmacology Branch, DTP, NCI, 2024)

System: 435261-313-R-J1-PDC tumor spheroid viability
Assay: Anticancer human tumor 435261-313-R-J1-PDC patient-derived colon adenocarcinoma cell line growth inhibition [PI3K]
Details: spheroids with HUVEC and MSC; for IC50: curve of first compound; for viability, T/C: stronger effect = lower value; active means viability on the fitted dose curve at most 10% of control; inactive means the rest
Method in brief: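 Three cell types, namely tumor cells, endothelial cells and mesenchymal stem cells, formed each spheroid. Combinations with four PI3K inhibitors were screened at clinically achievable concentrations decreasing by half-log, and spheroid viability was recorded.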

[1] = second compound 0.0316 µM, first compound 0.000316 µM
[2] = second compound 0.0316 µM, first compound 0.001 µM
[3] = second compound 0.0316 µM, first compound 0.00316 µM
[4] = second compound 0.0316 µM, first compound 0.01 µM
[5] = second compound 0.0316 µM, first compound 0.0316 µM
[6] = second compound 0.0316 µM, first compound 0.1 µM
[7] = second compound 0.1 µM, first compound 0.000316 µM
[8] = second compound 0.1 µM, first compound 0.001 µM
[9] = second compound 0.1 µM, first compound 0.00316 µM
[10] = second compound 0.1 µM, first compound 0.01 µM
[11] = second compound 0.1 µM, first compound 0.0316 µM
[12] = second compound 0.1 µM, first compound 0.1 µM
[13] = second compound 0.316 µM, first compound 0.000316 µM
[14] = second compound 0.316 µM, first compound 0.001 µM
[15] = second compound 0.316 µM, first compound 0.00316 µM
[16] = second compound 0.316 µM, first compound 0.01 µM
[17] = second compound 0.316 µM, first compound 0.0316 µM
[18] = second compound 0.316 µM, first compound 0.1 µM
[19] = second compound 1 µM, first compound 0.000316 µM
[20] = second compound 1 µM, first compound 0.001 µM
[21] = second compound 1 µM, first compound 0.00316 µM
[22] = second compound 1 µM, first compound 0.01 µM
[23] = second compound 1 µM, first compound 0.0316 µM
[24] = second compound 1 µM, first compound 0.1 µM
[25] = second compound 3.16 µM, first compound 0.000316 µM
[26] = second compound 3.16 µM, first compound 0.001 µM
[27] = second compound 3.16 µM, first compound 0.00316 µM
[28] = second compound 3.16 µM, first compound 0.01 µM
[29] = second compound 3.16 µM, first compound 0.0316 µM
[30] = second compound 3.16 µM, first compound 0.1 µM
[31] = second compound 10 µM, first compound 0.000316 µM
[32] = second compound 10 µM, first compound 0.001 µM
[33] = second compound 10 µM, first compound 0.00316 µM
[34] = second compound 10 µM, first compound 0.01 µM
[35] = second compound 10 µM, first compound 0.0316 µM
[36] = second compound 10 µM, first compound 0.1 µM
[37] = second compound 0.0316 µM, first compound 0.316 µM
[38] = second compound 0.0316 µM, first compound 1 µM
[39] = second compound 0.0316 µM, first compound 3.16 µM
[40] = second compound 0.0316 µM, first compound 10 µM
[41] = second compound 0.1 µM, first compound 0.316 µM
[42] = second compound 0.1 µM, first compound 1 µM
[43] = second compound 0.1 µM, first compound 3.16 µM
[44] = second compound 0.1 µM, first compound 10 µM
[45] = second compound 0.316 µM, first compound 0.316 µM
[46] = second compound 0.316 µM, first compound 1 µM
[47] = second compound 0.316 µM, first compound 3.16 µM
[48] = second compound 0.316 µM, first compound 10 µM
[49] = second compound 1 µM, first compound 0.316 µM
[50] = second compound 1 µM, first compound 1 µM
[51] = second compound 1 µM, first compound 3.16 µM
[52] = second compound 1 µM, first compound 10 µM
[53] = second compound 3.16 µM, first compound 0.316 µM
[54] = second compound 3.16 µM, first compound 1 µM
[55] = second compound 3.16 µM, first compound 3.16 µM
[56] = second compound 3.16 µM, first compound 10 µM
[57] = second compound 10 µM, first compound 0.316 µM
[58] = second compound 10 µM, first compound 1 µM
[59] = second compound 10 µM, first compound 3.16 µM
[60] = second compound 10 µM, first compound 10 µM
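Further: spheroids exposed to compounds for 7 days.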

CC(=O)c1c(C)c2cnc(Nc3ccc(N4CCNCC4)cn3)nc2n(C2CCCC2)c1=O + CC(Nc1ncnc2nc[nH]c12)c1cc2cccc(Cl)c2c(=O)n1-c1ccccc1
34.5 nM: IC50 (second compound 10 µM)
inactive: viability, T/C [1] 101% | viability, T/C [2] 125% | viability, T/C [3] 74.8% | viability, T/C [4] 94% | viability, T/C [5] 107% | viability, T/C [6] 84.1% | viability, T/C [7] 77.4% | viability, T/C [8] 84% | viability, T/C [9] 94.5% | viability, T/C [10] 101% | viability, T/C [11] 106% | viability, T/C [12] 64.9% | viability, T/C [13] 105% | viability, T/C [14] 72.7% | viability, T/C [15] 101% | viability, T/C [16] 90.1% | viability, T/C [17] 119% | viability, T/C [18] 69% | viability, T/C [19] 81.7% | viability, T/C [20] 57.1% | viability, T/C [21] 56.6% | viability, T/C [22] 92.3% | viability, T/C [23] 86.6% | viability, T/C [24] 62% | viability, T/C [25] 52.9% | viability, T/C [26] 79% | viability, T/C [27] 40.8% | viability, T/C [28] 63.1% | viability, T/C [29] 63.3% | viability, T/C [30] 41.3% | viability, T/C [31] 44.5% | viability, T/C [32] 54% | viability, T/C [33] 48.2% | viability, T/C [34] 56.1% | viability, T/C [35] 54.6% | viability, T/C [36] 32.2%
> 100 nM: IC50 (second compound 0.0316 µM) | IC50 (second compound 0.1 µM) | IC50 (second compound 0.316 µM) | IC50 (second compound 1 µM) | IC50 (second compound 3.16 µM)

CC1(C)CCC(CN2CCN(c3ccc(C(=O)NS(=O)(=O)c4ccc(NCC5CCOCC5)c([N+](=O)[O-])c4)c(Oc4cnc5[nH]ccc5c4)c3)CC2)=C(c2ccc(Cl)cc2)C1 + CC(Nc1ncnc2nc[nH]c12)c1cc2cccc(Cl)c2c(=O)n1-c1ccccc1
> 10000 nM: IC50 (second compound 0.0316 µM) | IC50 (second compound 0.1 µM) | IC50 (second compound 0.316 µM) | IC50 (second compound 1 µM) | IC50 (second compound 3.16 µM)
< 31.6 nM: IC50 (second compound 10 µM)
inactive: viability, T/C [5] 79.5% | viability, T/C [6] 92% | viability, T/C [37] 71.5% | viability, T/C [38] 80% | viability, T/C [39] 86.9% | viability, T/C [40] 95% | viability, T/C [11] 66.1% | viability, T/C [12] 78.2% | viability, T/C [41] 81.3% | viability, T/C [42] 71.6% | viability, T/C [43] 94.5% | viability, T/C [44] 84.9% | viability, T/C [17] 77.5% | viability, T/C [18] 100% | viability, T/C [45] 87.2% | viability, T/C [46] 77.3% | viability, T/C [47] 77.4% | viability, T/C [48] 52.2% | viability, T/C [23] 87.6% | viability, T/C [24] 66.1% | viability, T/C [49] 66.4% | viability, T/C [50] 64% | viability, T/C [51] 73.2% | viability, T/C [52] 46.6% | viability, T/C [29] 65.3% | viability, T/C [30] 72.6% | viability, T/C [53] 87.2% | viability, T/C [54] 72.3% | viability, T/C [55] 77% | viability, T/C [56] 76.7% | viability, T/C [35] 41.6% | viability, T/C [36] 60.8% | viability, T/C [57] 32.7% | viability, T/C [58] 62.9% | viability, T/C [59] 50.3% | viability, T/C [60] 43.9%

C[C@@H](NC(=O)c1ncnc(N)c1Cl)c1ncc(C(=O)Nc2cc(C(F)(F)F)c(Cl)cn2)s1 + CC(Nc1ncnc2nc[nH]c12)c1cc2cccc(Cl)c2c(=O)n1-c1ccccc1
> 10000 nM: IC50 (second compound 0.0316 µM) | IC50 (second compound 0.1 µM) | IC50 (second compound 0.316 µM) | IC50 (second compound 1 µM) | IC50 (second compound 3.16 µM)
inactive: viability, T/C [5] 158% | viability, T/C [6] 182% | viability, T/C [37] 124% | viability, T/C [38] 145% | viability, T/C [39] 153% | viability, T/C [40] 118% | viability, T/C [11] 128% | viability, T/C [12] 172% | viability, T/C [41] 153% | viability, T/C [42] 144% | viability, T/C [43] 147% | viability, T/C [44] 104% | viability, T/C [17] 112% | viability, T/C [18] 150% | viability, T/C [45] 135% | viability, T/C [46] 145% | viability, T/C [47] 150% | viability, T/C [48] 64.8% | viability, T/C [23] 146% | viability, T/C [24] 146% | viability, T/C [49] 147% | viability, T/C [50] 175% | viability, T/C [51] 144% | viability, T/C [52] 96.1% | viability, T/C [29] 119% | viability, T/C [30] 141% | viability, T/C [53] 111% | viability, T/C [54] 148% | viability, T/C [55] 91.4% | viability, T/C [56] 44.6% | viability, T/C [35] 72.8% | viability, T/C [36] 131% | viability, T/C [57] 88.7% | viability, T/C [58] 93.2% | viability, T/C [59] 51% | viability, T/C [60] 39.9%
3520 nM: IC50 (second compound 10 µM)

Cn1ncnc1[C@H]1c2n[nH]c(=O)c3cc(F)cc(c23)N[C@@H]1c1ccc(F)cc1 + CC(Nc1ncnc2nc[nH]c12)c1cc2cccc(Cl)c2c(=O)n1-c1ccccc1
0.725 nM: IC50 (second compound 10 µM)
> 100 nM: IC50 (second compound 0.0316 µM) | IC50 (second compound 0.1 µM) | IC50 (second compound 1 µM) | IC50 (second compound 3.16 µM)
76.3 nM: IC50 (second compound 0.316 µM)
inactive: viability, T/C [1] 116% | viability, T/C [2] 80.9% | viability, T/C [3] 76.1% | viability, T/C [4] 82.5% | viability, T/C [5] 59.2% | viability, T/C [6] 53.5% | viability, T/C [7] 90.6% | viability, T/C [8] 124% | viability, T/C [9] 104% | viability, T/C [10] 106% | viability, T/C [11] 85.2% | viability, T/C [12] 69.9% | viability, T/C [13] 81% | viability, T/C [14] 54.3% | viability, T/C [15] 71.4% | viability, T/C [16] 78.3% | viability, T/C [17] 62.1% | viability, T/C [18] 45.6% | viability, T/C [19] 80.3% | viability, T/C [20] 59.1% | viability, T/C [21] 80.9% | viability, T/C [22] 82.1% | viability, T/C [23] 56.6% | viability, T/C [24] 52.7% | viability, T/C [25] 53.3% | viability, T/C [26] 57.3% | viability, T/C [27] 75.8% | viability, T/C [28] 49.5% | viability, T/C [29] 71.1% | viability, T/C [30] 56.2% | viability, T/C [31] 58% | viability, T/C [32] 50.8% | viability, T/C [33] 34.9% | viability, T/C [34] 35.4% | viability, T/C [35] 39% | viability, T/C [36] 33.3%
